According to US20060069132A1, “Azolecarboxamide herbicides” (priority 2004, published 2006):

Tests used:
[1] = test system: small flower umbrella sedge; assay: Test B flooded paddy test; assay type: in vivo, Cyperus difformis; conditions: 1000 g ai/ha, scale 0 to 100 (0 no effect, 100 complete control)
Outline: (§1)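 Postemergence plants were sprayed with formulated test chemicals at 2 to 18 cm height (1- to 4-leaf stage); paddy species were grown to the 2-leaf stage. After 13 to 15 days in a greenhouse, injury was rated visually against untreated controls on a 0–100 scale (0 = no effect, 100 = complete control).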

barnyardgrass [2] = assay: Test A pre-/postemergence herbicide test; assay type: in vivo, Echinochloa crus-galli
Outline: (§2)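 Seeds sown in sandy loam received a preemergence directed soil spray of compound in non-phytotoxic solvent with surfactant; postemergence plants (2–10 cm, one- to two-leaf stage) were sprayed to runoff at the same time. After ~10 days in greenhouse, injury was rated visually versus untreated controls (0 = no effect, 100 = complete control).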

barnyardgrass [3] = assay: Test C flooded paddy test; assay type: in vivo, Echinochloa crus-galli
Outline: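 Postemergence sprays were applied to plants 2 to 18 cm tall (1- to 4-leaf stage); in the flooded paddy test, barnyardgrass was grown to the 2-leaf stage. After 12 to 14 days in a greenhouse, injury was visually rated against untreated controls on a 0–100 scale (100 = complete control).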

large crabgrass [4] = assay: Test A pre-/postemergence herbicide test; assay type: in vivo, Digitaria sanguinalis
Outline: as §2

redroot pigweed = assay: Test A pre-/postemergence herbicide test; assay type: in vivo, Amaranthus retroflexus
Outline: as §2

ducksalad [5] = assay: Test B flooded paddy test; assay type: in vivo, Heteranthera limosa; conditions: 1000 g ai/ha, scale 0 to 100 (0 no effect, 100 complete control)
Outline: as §1

rice [6] = assay: Test C flooded paddy test; assay type: in vivo, Oryza sativa
Outline: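 Plants were grown to the 1- to 4-leaf stage (2–18 cm) and then treated postemergence, or grown to the 2-leaf stage for the flooded paddy test. They were held in a greenhouse for 12 to 14 days and then scored by eye against controls, where 0 is no effect and 100 is complete control.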

rice [7] = assay: Test B flooded paddy test; assay type: in vivo, Oryza sativa; conditions: 1000 g ai/ha, scale 0 to 100 (0 no effect, 100 complete control)
Outline: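 Paddy species grown to the 2-leaf stage under flooding; blackgrass sprayed postemergence at 2–18 cm (1- to 4-leaf stage). Plants kept in a greenhouse for 13 to 15 days, then visually rated against controls on 0 (no effect) to 100 (complete control).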

barnyardgrass [8] = assay: Test B flooded paddy test; assay type: in vivo, Echinochloa crus-galli; conditions: 1000 g ai/ha, scale 0 to 100 (0 no effect, 100 complete control)
Outline: as §1

morningglory [9] = assay: Test A pre-/postemergence herbicide test; assay type: in vivo, Ipomoea spp.
Outline: as §2

giant foxtail [10] = assay: Test A pre-/postemergence herbicide test; assay type: in vivo, Setaria faberi
Outline: as §2

ducksalad [11] = assay: Test C flooded paddy test; assay type: in vivo, Heteranthera limosa
[12] = test system: smallflower umbrella sedge; assay: Test C flooded paddy test; assay type: in vivo, Cyperus difformis
velvetleaf [13] = assay: Test A pre-/postemergence herbicide test; assay type: in vivo, Abutilon theophrasti
Outline: as §2

Surinam grass = assay: Test B pre-/postemergence herbicide test; assay type: in vivo, Urochloa decumbens; conditions: for Surinam Grass plant response rating: postemergence
Outline: (§3)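 Test chemicals in a non-phytotoxic solvent mixture with surfactant were applied preemergence to seeded species and postemergence to plants 2-18 cm tall (1- to 4-leaf stage); rice and barnyardgrass were also tested in a flooded paddy at the 2-leaf stage. Visual rating versus controls after 13-15 days in greenhouse, scale 0 (no effect) to 100 (complete control).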

pigweed = assay: Test B pre-/postemergence herbicide test; assay type: in vivo, Amaranthus retroflexus; conditions: for Pigweed plant response rating: postemergence
Outline: as §3

giant foxtail [14] = assay: Test B pre-/postemergence herbicide test; assay type: in vivo, Setaria faberi; conditions: for Foxtail, Giant plant response rating: postemergence
Outline: as §3

corn = assay: Test B pre-/postemergence herbicide test; assay type: in vivo, Zea mays; conditions: for Corn plant response rating: postemergence
Outline: as §3

barnyardgrass [15] = assay: Test B pre-/postemergence herbicide test; assay type: in vivo, Echinochloa crus-galli; conditions: for Barnyardgrass plant response rating: postemergence
Outline: (§4)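 Seeds were planted and treated preemergence with compounds formulated in a non-phytotoxic solvent mixture containing surfactant, while plants at the 1- to 4-leaf stage (2 to 18 cm) received postemergence sprays. Flooded paddy plants were grown to the 2-leaf stage. After 13 to 15 days in a greenhouse, injury was visually rated 0–100 against untreated controls.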

wild oat = assay: Test B postemergence herbicide test; assay type: in vivo, Avena fatua; conditions: postemergence
Outline: (§5)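 Read-out: visual comparison with controls, scored 0 to 100, where 100 means complete control and 0 no effect. Formulated chemicals were applied postemergence to plants 2–18 cm tall (1- to 4-leaf), or to flooded-paddy plants at the 2-leaf stage, then held 13 to 15 days under glass.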

large crabgrass [16] = assay: Test B pre-/postemergence herbicide test; assay type: in vivo, Digitaria sanguinalis; conditions: for Crabgrass, Large plant response rating: postemergence
Outline: as §3

blackgrass = assay: Test B postemergence herbicide test; assay type: in vivo, Alopecurus myosuroides; conditions: postemergence
Outline: as §1

velvetleaf [17] = assay: Test B pre-/postemergence herbicide test; assay type: in vivo, Abutilon theophrasti; conditions: 100 is complete control
Outline: as §3

morningglory [18] = assay: Test B pre-/postemergence herbicide test; assay type: in vivo, Ipomoea coccinea; conditions: for Morningglory plant response rating: postemergence
Outline: as §4

cocklebur = assay: Test B pre-/postemergence herbicide test; assay type: in vivo, Xanthium strumarium; conditions: for Cocklebur plant response rating: postemergence
Outline: as §4

lambsquarters = assay: Test B pre-/postemergence herbicide test; assay type: in vivo, Chenopodium album; conditions: for Lambsquarters plant response rating: postemergence
Outline: as §3

wheat = assay: Test B postemergence herbicide test; assay type: in vivo, Triticum aestivum; parameters: key to Wheat plant response rating: 0 = no effect, 100 = complete control; conditions: postemergence
Outline: as §5

[19] = Postemergence, 500 g ai/ha, 0 to 100 scale, 0 no effect, 100 complete control
[20] = Postemergence, 2000 g ai/ha, 0 to 100 scale, 0 no effect, 100 complete control
[21] = Preemergence, 2000 g ai/ha, visual rating, 0 to 100 scale (0 no effect, 100 complete control)
[22] = preemergence, 500 g ai/ha, visual injury, 0 to 100 scale (0 no effect, 100 complete control)
[23] = 125 g ai/ha, scale 0 to 100 (0 no effect, 100 complete control)
[24] = 250 g ai/ha, scale of 0 to 100, 0 is no effect, 100 is complete control
[25] = 500 g ai/ha, visual rating after 12 to 14 days, scale 0 to 100 (0 no effect, 100 complete control)
[26] = 125 g ai/ha, 0 is no effect, 100 is complete control, preemergence
[27] = 125 g ai/ha, visual rating, scale 0 (no effect) to 100 (complete control)
[28] = 500 g ai/ha, visual rating, 0 = no effect, 100 = complete control, preemergence
[29] = 500 g ai/ha, scale 0 to 100, 0 is no effect, 100 is complete control

Structure (SMILES): CCOC(=O)c1cncc(NC(=O)c2cc(C(C)(C)C)nn2CC)c1 [Compound 255]
- Sedge, Umbrella plant response rating [1]: 80
- Barnyardgrass plant response rating (barnyardgrass [2]; [19]): 40
- Plant response rating, Barnyardgrass (barnyardgrass [2]; [20]): 70
- Barnyardgrass plant response rating (barnyardgrass [2]; [21]): 75
- Barnyardgrass plant response rating (barnyardgrass [2]; [22]): 55
- Barnyardgrass plant response rating (barnyardgrass [3]; 62 g ai/ha, scale 0 to 100 (0 no effect, 100 complete control)): 0
- Barnyardgrass plant response rating (barnyardgrass [3]; [23]): 10
- Barnyardgrass plant response rating (barnyardgrass [3]; [24]): 25
- Plant response rating, Barnyardgrass (barnyardgrass [3]; [25]): 35
- Crabgrass, Large plant response rating (large crabgrass [4]; [19]): 20
- Plant response rating, Crabgrass, Large (large crabgrass [4]; [20]): 40
- Crabgrass, Large plant response rating (large crabgrass [4]; [21]): 55
- Crabgrass, Large plant response rating (large crabgrass [4]; [22]): 35
- Pigweed plant response rating (redroot pigweed; [19]): 70
- Plant response rating, Pigweed (redroot pigweed; [20]): 100
- Pigweed plant response rating (redroot pigweed; [21]): 100
- Pigweed plant response rating (redroot pigweed; [22]): 90
- Ducksalad plant response rating (ducksalad [5]): 80
- Rice plant response rating (rice [6]; 62 g ai/ha, scale 0 to 100): 0
- Rice plant response rating (rice [6]; [23]): 0
- Rice plant response rating (rice [6]; [24]): 45
- Plant response rating, Rice (rice [6]; [25]): 50
- Rice plant response rating (rice [7]): 70
- Barnyardgrass plant response rating (barnyardgrass [8]): 70
- Morningglory plant response rating (morningglory [9]; [19]): 10
- Plant response rating, Morningglory (morningglory [9]; [20]): 25
- Morningglory plant response rating (morningglory [9]; [21]): 70
- Morningglory plant response rating (morningglory [9]; [22]): 30
- Foxtail, Giant plant response rating (giant foxtail [10]; [19]): 30
- Plant response rating, Foxtail, Giant (giant foxtail [10]; [20]): 55
- Foxtail, Giant plant response rating (giant foxtail [10]; [21]): 60
- Foxtail, Giant plant response rating (giant foxtail [10]; [22]): 45
- Ducksalad plant response rating (ducksalad [11]; 62 g ai/ha, scale 0 to 100): 0
- Ducksalad plant response rating (ducksalad [11]; [23]): 10
- Ducksalad plant response rating (ducksalad [11]; [24]): 35
- Plant response rating, Ducksalad (ducksalad [11]; [25]): 40
- Sedge, Umbrella plant response rating ([12]; 62 g ai/ha, scale 0 to 100): 0
- Sedge, Umbrella plant response rating [12, 23]: 20
- Sedge, Umbrella plant response rating [12, 24]: 35
- Plant response rating, Sedge, Umbrella [12, 25]: 45
- Velvetleaf plant response rating (velvetleaf [13]; [19]): 35
- Plant response rating, Velvetleaf (velvetleaf [13]; [20]): 50
- Velvetleaf plant response rating (velvetleaf [13]; [21]): 50
- Velvetleaf plant response rating (velvetleaf [13]; [22]): 30

Structure (SMILES): CCc1nn(C2CCCC2)nc1C(=O)Nc1cccc(C(=O)N2CC=CC2)c1 [Compound 354]
- Plant response rating (0 to 100 scale), Surinam Grass (Surinam grass; [26]): 0
- Surinam Grass plant response rating (Surinam grass; [27]): 0
- Plant response rating, Surinam Grass (Surinam grass; [28]): 20
- Surinam Grass plant response rating (Surinam grass; [29]): 20
- Plant response rating (0 to 100 scale), Pigweed (pigweed; [26]): 0
- Pigweed plant response rating (pigweed; [27]): 40
- Plant response rating, Pigweed (pigweed; [28]): 90
- Pigweed plant response rating (pigweed; [29]): 50
- Plant response rating (0 to 100 scale), Foxtail, Giant (giant foxtail [14]; [26]): 10
- Foxtail, Giant plant response rating (giant foxtail [14]; [27]): 10
- Plant response rating, Foxtail, Giant (giant foxtail [14]; [28]): 70
- Foxtail, Giant plant response rating (giant foxtail [14]; [29]): 20
- Plant response rating (0 to 100 scale), Corn (corn; [26]): 20
- Corn plant response rating (corn; [27]): 0
- Plant response rating, Corn (corn; [28]): 20
- Corn plant response rating (corn; [29]): 0
- Sedge, Umbrella plant response rating [1]: 50
- Plant response rating (0 to 100 scale), Barnyardgrass (barnyardgrass [15]; [26]): 0
- Barnyardgrass plant response rating (barnyardgrass [15]; [27]): 0
- Plant response rating, Barnyardgrass (barnyardgrass [15]; [28]): 60
- Barnyardgrass plant response rating (barnyardgrass [15]; [29]): 0
- Barnyardgrass plant response rating (barnyardgrass [2]; [19]): 20
- Plant response rating, Barnyardgrass (barnyardgrass [2]; [20]): 70
- Barnyardgrass plant response rating (barnyardgrass [2]; [21]): 55
- Barnyardgrass plant response rating (barnyardgrass [2]; [22]): 0
- Oat, Wild plant response rating (wild oat; [27]): 0
- Oat, Wild plant response rating (wild oat; [29]): 20
- Plant response rating (0 to 100 scale), Crabgrass, Large (large crabgrass [16]; [26]): 20
- Crabgrass, Large plant response rating (large crabgrass [16]; [27]): 0
- Plant response rating, Crabgrass, Large (large crabgrass [16]; [28]): 80
- Crabgrass, Large plant response rating (large crabgrass [16]; [29]): 10
- Crabgrass, Large plant response rating (large crabgrass [4]; [19]): 10
- Plant response rating, Crabgrass, Large (large crabgrass [4]; [20]): 20
- Crabgrass, Large plant response rating (large crabgrass [4]; [21]): 20
- Crabgrass, Large plant response rating (large crabgrass [4]; [22]): 10
- Pigweed plant response rating (redroot pigweed; [19]): 70
- Plant response rating, Pigweed (redroot pigweed; [20]): 80
- Pigweed plant response rating (redroot pigweed; [21]): 70
- Pigweed plant response rating (redroot pigweed; [22]): 60
- Blackgrass plant response rating (blackgrass; [27]): 10
- Blackgrass plant response rating (blackgrass; [29]): 20
- Ducksalad plant response rating (ducksalad [5]): 50
- Rice plant response rating (rice [7]): 50
- Plant response rating (0 to 100 scale), Velvetleaf (velvetleaf [17]; 125 g ai/ha, 0 is no effect, preemergence): 0
- Velvetleaf plant response rating (velvetleaf [17]; postemergence, 500 g ai/ha, scale 0 to 100, 0 is no effect): 10
- Barnyardgrass plant response rating (barnyardgrass [8]): 40
- Plant response rating (0 to 100 scale), Morningglory (morningglory [18]; [26]): 0
- Morningglory plant response rating (morningglory [18]; [27]): 30
- Plant response rating, Morningglory (morningglory [18]; [28]): 0
- Morningglory plant response rating (morningglory [18]; [29]): 60
- Morningglory plant response rating (morningglory [9]; [19]): 20
- Plant response rating, Morningglory (morningglory [9]; [20]): 85
- Morningglory plant response rating (morningglory [9]; [21]): 20
- Morningglory plant response rating (morningglory [9]; [22]): 15
- Plant response rating (0 to 100 scale), Cocklebur (cocklebur; [26]): 0
- Cocklebur plant response rating (cocklebur; [27]): 10
- Plant response rating, Cocklebur (cocklebur; [28]): 0
- Cocklebur plant response rating (cocklebur; [29]): 20
- Foxtail, Giant plant response rating (giant foxtail [10]; [19]): 10
- Plant response rating, Foxtail, Giant (giant foxtail [10]; [20]): 50
- Foxtail, Giant plant response rating (giant foxtail [10]; [21]): 80
- Foxtail, Giant plant response rating (giant foxtail [10]; [22]): 15
- Lambsquarters plant response rating (lambsquarters; [27]): 10
- Plant response rating, Lambsquarters (lambsquarters; [28]): 100
- Lambsquarters plant response rating (lambsquarters; [29]): 50
- Velvetleaf plant response rating (velvetleaf [13]; [19]): 50
- Plant response rating, Velvetleaf (velvetleaf [13]; [20]): 70
- Velvetleaf plant response rating (velvetleaf [13]; [21]): 45
- Velvetleaf plant response rating (velvetleaf [13]; [22]): 5
- Wheat plant response rating (wheat; [27]): 0
- Wheat plant response rating (wheat; [29]): 20
